The text below walks through data of the NIST ThermoML archive (doi:10.1016/j.fluid.2008.03.020).

For series [1] the following is noted: Liquid.
A short description of series [2]: refractive index (Na D-line) (dimensionless). Particulars: Liquid, Standard Abbe refractometry.

Numbers after ± are expanded uncertainties.

On to `ClC(Cl)C(Cl)Cl` [1,1,2,2-tetrachloroethane], for which the mass density in series [1] (293.15 K) was 1593 ± 4.5 kg/m3. In addition, in series [1] (417.25 K), the “vapor or sublimation pressure” value came out at 95.5 ± 2 kPa. Further, the refractive index in series [2] (293.15 K) amounted to 1.494 ± 0.0007.
Consider `ClCCCl` [1,2-dichloroethane], for which, in series [1] (293.15 K), the mass density is listed as 1252.9 ± 3.4 kg/m3. Also, the “vapor or sublimation pressure” value in series [1] (355.15 K) stood at 95.5 ± 2 kPa. The refractive index in series [2] (293.15 K) worked out at 1.4196 ± 0.0007.
On to `C=CC#N` [acrylonitrile], for which, in series [1] (298.15 K), the mass density worked out at 800.3 ± 2 kg/m3. Further, the “vapor or sublimation pressure” value in series [1] (348.75 K) came out at 95.5 ± 2 kPa. Further, the refractive index in series [2] (298.15 K) is 1.3887 ± 0.0007.
Take `Clc1ccccc1` [chlorobenzene]: the mass density in series [1] (298.15 K) is on record as 1101 ± 3 kg/m3. In addition, the “vapor or sublimation pressure” value in series [1] (402.85 K) was found to be 95.5 ± 2 kPa. In series [2] (298.15 K), the refractive index is reported as 1.5218 ± 0.0007.
In the case of `O=[N+]([O-])c1ccccc1` [nitrobenzene], the mass density in series [1] (298.15 K) was found to be 1198.3 ± 3.3 kg/m3. In series [1] (481.45 K), the “vapor or sublimation pressure” value is recorded as 95.5 ± 2 kPa. The refractive index in series [2] (298.15 K) is given as 1.55 ± 0.0007.

As a reminder, the mass density is mass per unit of volume. As a reminder, the vapor or sublimation pressure is the pressure of vapour in equilibrium with the condensed phase. As a reminder, the refractive index is a measure of how strongly the sample bends light.
